Laboratory results from US20040106647A1, “Modulators of Cdk9 as a therapeutic target in cardiac hypertrophy” (priority 2002, published 2004).

What was measured:
cardiac myocytes [1] = assay: Myocyte apoptosis by flow cytometry (hypodiploid DNA); assay type: cell-based
Excerpt: Myocyte apoptosis was monitored by flow cytometry as hypodiploid DNA, using FITC-conjugated MF20 antibody to sarcomeric myosin heavy chains and propidium iodide in the presence of RNase A (Oh et al., 2001).

Cdk9 [2] = biological target: Cdk9 (Homo sapiens, UniProt P50750); conditions: Zhu et al., 1997; cited from earlier work
Sequence of Cdk9 (Homo sapiens, UniProt P50750) (P50750 whole entry, species assumed): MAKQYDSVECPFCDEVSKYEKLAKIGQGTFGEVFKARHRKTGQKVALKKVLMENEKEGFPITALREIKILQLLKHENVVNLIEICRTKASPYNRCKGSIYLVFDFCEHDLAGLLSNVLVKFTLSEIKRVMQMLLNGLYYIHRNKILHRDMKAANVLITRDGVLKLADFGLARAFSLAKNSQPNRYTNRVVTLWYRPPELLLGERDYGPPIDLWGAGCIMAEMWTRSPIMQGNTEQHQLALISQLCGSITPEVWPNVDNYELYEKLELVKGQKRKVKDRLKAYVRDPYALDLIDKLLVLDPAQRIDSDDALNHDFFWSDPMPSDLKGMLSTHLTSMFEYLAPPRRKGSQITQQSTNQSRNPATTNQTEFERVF
Sequence of Cdk9 (Homo sapiens, UniProt P50750) (O60563 whole entry partner, species assumed): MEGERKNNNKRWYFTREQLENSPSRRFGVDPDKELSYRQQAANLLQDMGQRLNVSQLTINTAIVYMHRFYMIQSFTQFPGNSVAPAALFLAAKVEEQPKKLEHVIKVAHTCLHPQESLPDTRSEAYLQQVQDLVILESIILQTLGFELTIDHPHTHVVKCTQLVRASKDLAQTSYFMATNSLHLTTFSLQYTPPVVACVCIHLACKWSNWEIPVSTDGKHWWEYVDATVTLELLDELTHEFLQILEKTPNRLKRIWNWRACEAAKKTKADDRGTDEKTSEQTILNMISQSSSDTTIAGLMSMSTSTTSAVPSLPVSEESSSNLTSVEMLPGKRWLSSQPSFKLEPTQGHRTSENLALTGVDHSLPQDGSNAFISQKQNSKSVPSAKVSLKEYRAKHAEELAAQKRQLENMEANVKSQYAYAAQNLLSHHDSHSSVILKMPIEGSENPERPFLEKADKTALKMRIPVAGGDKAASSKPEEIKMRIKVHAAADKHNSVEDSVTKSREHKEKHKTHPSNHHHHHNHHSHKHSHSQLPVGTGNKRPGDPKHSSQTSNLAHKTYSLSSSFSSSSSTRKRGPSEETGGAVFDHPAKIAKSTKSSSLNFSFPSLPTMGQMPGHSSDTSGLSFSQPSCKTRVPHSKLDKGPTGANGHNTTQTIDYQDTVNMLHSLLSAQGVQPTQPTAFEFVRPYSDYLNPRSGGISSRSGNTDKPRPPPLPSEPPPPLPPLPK

Cdk9 [3] = biological target: T1, Cdk9 (Rattus norvegicus, UniProt Q641Z4); assay: Immune complex CTD kinase assay (GST-CTD substrate), Cdk9; assay type: biochemical
T1 construct: endogenous in cells; host or cells: neonatal rat ventricular myocytes; immunoprecipitated with polyclonal rabbit anti-Cdk9 and protein A-Sepharose
T1 sequence (Q641Z4 whole entry): as the sequence (P50750 whole entry, species assumed) above, with S17T, R37K, K40Q, N258K, Y262F counted along it
Description: (§1) Immune complex kinase assays were performed as described (Yang et al., 1996), using polyclonal rabbit antibody against Cdk7 or Cdk9 together with protein A-Sepharose. Kinase assays were performed by adding 25 μl of 50 mM Tris-HCl [pH 7.4], 10 mM MgCl2, 5 mM dithiothreitol, 2.5 mM MnCl2, 5 μM ATP, 5 μCi of [γ-^32P]ATP, and 200 ng of GST-CTD to the beads and incubating at room temperature for 60 min. The complexes were resolved by SDS-polyacrylamide gel electrophoresis, and CTD phosphorylation was visualized by autoradiography and quantified using a phosphorimager and ImageQuant version 5.2 (Molecular Dynamics). Where indicated, immunoprecipiates were incubated with 50 μg/ml of bovine pancreas ribonuclease A (RNase A; Sigma) for 60 min prior to the CTD kinase assay.
(§2) Next, cells were preincubated with DRB for 2 hr at the concentrations shown, and were assayed for pol II phosphorylation after stimulation with ET-1 for 15 min or the indicated intervals. Immune complexes were treated in vitro with 50 μM DRB and assayed by phosphorylation of the recombinant GST-CTD substrate. […] Based on this effect, 50 μM DRB was added in vitro to cardiac Cdk9 and Cdk7 immune complexes, and assayed for its effect on phosphorylation of the recombinant CTD substrate.

cardiac myocytes [4] = assay: [3H]uridine incorporation (RNA synthesis) in cardiac myocytes; assay type: cell-based, rat
Description: (§3) Neonatal ventricular myocytes from 1 to 2 day-old Sprague-Dawley rats were subjected to Percoll gradient centriftigation and differential plating, to enrich for cardiac myocytes and deplete nonmyocytes (Oh et al., 2001). Cells were infected for 6 hr, after overnight culture, at a multiplicity of infection (MOI) of 20, then were cultured in serum-free medium for an additional 24 hr before the addition of agonists. The efficiency of viral gene transfer is >95% under the conditions used. DRB (Sigmna) was dissolved in dimethylsulfoxide (DMSO) and then in culture medium to the desired final concentration in 0.1% (vol/vol) DMSO.
Cells were incubated for 24 hr with 1 μCi/ml of either precursor, in the absence or presence of ET-1 and [^3H]uridine and [^3H]phenylalanine incorporation was measured. Total RNA was extracted using TRIzol (Invitrogen), for simultaneous extraction of DNA from the samples.
(§4) Hypertrophy was monitored as [^3H]uridine incorporation (FIG. 2F, FIG. 2H; n=4 per group) and [^3H]phenylalanine incorporation (FIG. 2I; n=6 per group), corrected for DNA content. Myocyte size was visualized with eGFP (FIG. 2G, FIG. 2J). Bar, 100 μm.

cardiac myocytes [5] = assay: Myocyte size visualized with eGFP; assay type: cell-based, rat; conditions: DRB pretreatment, ET-1 stimulation
Description: as §3, §4

pol II CTD = assay: Western blotting of pol II CTD phosphorylation in cultured ventricular myocytes; assay type: cell-based, rat; conditions: for hyperphosphorylation of pol II: serum-starved 24 hr, stimulated 15 min, ET-1 0.1 μM, PE 0.1 μM, HB-EGF 1 nM
Description: Western blotting was performed using the identical cell lysates. The following antibodies were used: rabbit antibodies against pol II, Cdk7, Cyclin H, MAT1, CyclinT1, Hsp70, Hsp90 and Cdc37; goat antibody against Cyclin T2a/b; and mouse monoclonal antibodies to the Ser2 and Ser5 CTD phoshopeptides (Patturajan et al., 1998; Herrmann et al., 2001). Protein expression was visualized using horseradish peroxidase-conjugated second antibodies and enhanced chemiluminescence reagents (Amersham Pharmacia Biotech).
as §3
Briefly, ventricular myocytes were analyzed by Western blotting as in Example 1. Ventricular myocytes were serum-starved for 24 hr, stimulated for 15 min with ET-1 (0.1 μM), PE (0.1 μM), HB-EGF (1 nM), or the vehicle, and analyzed by Western blotting with antibody to the pol II CTD. Ventricular myocytes were stimulated with ET-1 for the indicated times.
as §2

Cdk7 = biological target: T2, Cdk7 (Rattus norvegicus, UniProt P51952); assay: Immune complex CTD kinase assay (GST-CTD substrate), Cdk7; assay type: biochemical; conditions: 50 μM DRB added in vitro to cardiac immune complexes
T2 construct: endogenous in cells; host or cells: neonatal rat ventricular myocytes; immunoprecipitated with polyclonal rabbit anti-Cdk7 and protein A-Sepharose
T2 sequence (P51952 1-329): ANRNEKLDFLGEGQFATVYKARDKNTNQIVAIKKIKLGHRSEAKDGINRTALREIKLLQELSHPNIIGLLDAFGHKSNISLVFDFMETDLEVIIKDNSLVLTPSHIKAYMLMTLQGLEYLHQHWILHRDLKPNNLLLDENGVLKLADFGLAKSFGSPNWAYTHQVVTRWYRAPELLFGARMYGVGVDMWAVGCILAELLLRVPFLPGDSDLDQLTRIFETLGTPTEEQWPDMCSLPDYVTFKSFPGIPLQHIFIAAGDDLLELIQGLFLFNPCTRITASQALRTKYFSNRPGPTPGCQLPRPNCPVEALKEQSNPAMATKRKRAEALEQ
T2 sequence (Q9R1A0 1-323 partner): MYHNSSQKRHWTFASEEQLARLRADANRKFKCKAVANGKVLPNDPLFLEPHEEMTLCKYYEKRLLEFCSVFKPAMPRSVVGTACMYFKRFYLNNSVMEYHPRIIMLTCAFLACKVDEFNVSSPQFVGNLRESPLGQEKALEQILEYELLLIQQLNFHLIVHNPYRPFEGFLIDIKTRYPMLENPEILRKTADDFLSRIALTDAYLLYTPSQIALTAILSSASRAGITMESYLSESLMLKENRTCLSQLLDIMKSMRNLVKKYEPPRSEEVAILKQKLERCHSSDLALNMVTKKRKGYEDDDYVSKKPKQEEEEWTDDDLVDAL
Description: as §1, §2

[6] = test system: mitogen-activated protein kinases; assay: Phosphorylation of mitogen-activated protein kinases in cultured cardiac myocytes; assay type: cell-based, rat; conditions: 50 μM DRB
cyclin T/Cdk9 complex = assay: Co-precipitation of 7SK snRNA with cyclin T/Cdk9 (RT-PCR of immune complexes); assay type: cell-based, rat; conditions: cardiac myocytes treated with ET-1
Description: Total RNA was isolated from Cdk9, cyclin T1, cyclin T2, and Cdk7 immune complexes using TRIzol and subjected to DNase I (Invitrogen) for 15 min at room temperature, followed by reverse transcription using antisense oligonucleotides for 7SK snRNA. The PCR primers were: sense, (SEQ. ID. NO. 3) […]; antisense, (SEQ. ID. NO. 4) […]. PCR products were subjected to electrophoresis on 2% agarose gel and stained with ethidium bromide.
ET-1 caused the rapid loss of Cdk9-associated 7SK snRNA, within 15 min. These findings were substantiated using each of three antibodies to the cyclin T/Cdk9 complex. Levels of 7SK RNA in the corresponding total cell lysates were unchanged. […] Thus, hypertrophic signals in cultured cardiac myocytes and the intact heart induce the dissociation of 7SK RNA from endogenous cyclin T/Cdk9. […] Conversely, endogenous cyclin T/Cdk9 was recovered from cardiac lysates using streptavidin-agarose plus a biotinylated 2′-O-methyl (2′-OMe) oligonucleotide complementary to 7SK snRNA (FIG. 3G): this method confirmed independently the dissociation of 7SK snRNA from cardiac cyclin T/Cdk9 for Gq and calcineurin.

[7] = biological target: cyclin dependent kinase 9 (Cdk9) (endogenous, mouse myocardium) (mouse) (UniProt Q99J95); assay: cell-based or functional assay
Sequence of cyclin dependent kinase 9 (Cdk9) (endogenous, mouse myocardium) (mouse) (Q99J95 whole entry): as the sequence (P50750 whole entry, species assumed) above, with S17T, R37K, K40Q, N258K, Y262F counted along it

[8] = 50 μM, cardiac myocytes, [3H]uridine incorporation
[9] = antisense knockdown of 7SK snRNA, 48 hr after transfection, cardiac myocytes

Molecule: OC[C@H]1O[C@@H](n2cnc3cc(Cl)c(Cl)cc32)[C@H](O)[C@@H]1O [DRB, 5,6-dichloro-1-beta-D-ribofuranosylbenzimidazole]
- apoptosis (cardiac myocytes [1]; conditions sufficient to block ET-1 induction of pol II phosphorylation almost completely): no increase in apoptosis
- cell death (cardiac myocytes [1]; higher concentrations that block RNA synthesis more completely): did induce cell death
- selectivity among CTD kinases (Cdk9 [2]): selective activity against Cdk9
- Cdk9 activity (phosphorylation of recombinant CTD substrate) (Cdk9 [3]; 50 μM DRB added in vitro to cardiac immune complexes): blocked Cdk9 activity almost completely
- inhibition of ET-1 induced RNA synthesis (cardiac myocytes [4]; [8]): ~80%
- inhibition of basal RNA synthesis (cardiac myocytes [4]; [8]): ~80%
- ET-1-associated increase in myocyte size (cardiac myocytes [5]): blocked
- ET-1-induced pol II phosphorylation (pol II CTD; 50 μM DRB, preincubated 2 hr, ET-1 15 min, cultured cardiac myocytes): inhibited
- Cdk7 activity (phosphorylation of recombinant CTD substrate) (Cdk7): little or no effect
- phosphorylation of mitogen-activated protein kinases downstream of ET-1 [6]: without impairing

Molecule: CNC[C@H](O)c1cccc(O)c1 [PE, phenylephrine]
- hyperphosphorylation of pol II (pol II CTD): induced

Molecule: antisense 7SK: antisense phosphorothioate oligonucleotide, SEQ. ID. NO. 1, 5′-CCTTGAGAGCTTGTTTGG AGG-3′, against 7SK snRNA (antisense CCTTGAGAGCTTGTTTGGAGG; all phosphorothioate, sugars by position and methylation of C not given here)
- endogenous Cdk9 activity (Cdk9 [3]; [9]): markedly increased
- uridine incorporation (cardiac myocytes [4]; [9]): as large an increase in uridine incorporation as did ET-1 itself

Molecule: endothelin-1 [ET-1]
- time to loss of Cdk9-associated 7SK snRNA (cyclin T/Cdk9 complex): ≤ 15 min
- Cdk9 CTD kinase activity (Cdk9 [3]; ventricular myocytes stimulated with ET-1 for 15 min): increased
- augmentation of [3H]uridine incorporation (cardiac myocytes [4]; control eGFP-infected myocytes, 24 hr): one-third
- increase in proportion of pol IIo (pol II CTD; ET-1 time course, peak at 15 min, from 4% at baseline): 9 fold
- maximum proportion of pol IIo (pol II CTD; ET-1 time course, peak at 15 min, baseline 4%): 36%
- preferred CTD heptad residue phosphorylated (pol II CTD; phospho-epitope specific antibodies, Ser2 vs Ser5): preferentially induce phosphorylation at Ser2
- hyperphosphorylation of pol II (pol II CTD): induced

Molecule: mouse cyclin T1 (cardiac-specific αMHC-cyclin T1 transgene) (from UniProt Q9QWV9 1-724)
- Cdk9 activity (immune complex CTD kinase assay), high-expression transgenic line [7]: 6 fold
- Cdk9 activity (immune complex CTD kinase assay), low-expression transgenic line [7]: 2 fold
- baseline Cdk9 activity (immune complex kinase assay), cyclin T1 mice versus wild-type littermates [7]: 4.4 fold

B1: RNase A: bovine pancreas ribonuclease A (Sigma) (protein, UniProt P61823 27-150, looked up)
Ribonuclease pancreatic: KETAAAKFERQHMDSSTSAASSSNYCNQMMKSRNLTKDRCKPVNTFVHESLADVQAVCSQKNVACKNGQTNCYQSYSTMSITDCRETGSSKYPNCAYKTTQANKHIIVACEGNPYVPVHFDASV
- Cdk9 kinase activity after treatment of immune complexes (Cdk9 [3]; RNase A 50 μg/ml 60 min, control cells, GST-CTD substrate): levels even higher than did ET-1

B2: heparin-binding epidermal growth factor (protein, UniProt Q99075 63-148, looked up)
Heparin-binding EGF-like …: DLQEADLDLLRVTLSSKPQALATPNKEEHGKRKKKGKGLGKKRDPCLRKYKDFCIHGECKYVKELRAPSCICHPGYHGERCHGLSL
notes: member of the EGF family, secreted mediator of growth signals in the heart
- hyperphosphorylation of pol II (pol II CTD): induced
